Source: patent US20050112573A1, “Method of detecting toxic substance” (priority 2001, published 2005)

System: yeast genes (level of expressed mRNA)
Assay: DNA chip analysis of expressed mRNA of yeast genes after 2 h culture with a toxic chemical substance
Type: cell-based, Saccharomyces cerevisiae S288C
Details: for The level of expressed mRNA in the presence of chemical substance/ (ratio to absence of chemical substance): stress protein genes, DNA chip; for The level of expressed mRNA in the presence of chemical substance/ in its absence, gene YPR184W: yeast gene YPR184W
Description: Yeast (Saccharomyces cerevtisiae S288C (α SUC2mal mel gap2 CUP1)) were cultured at 25° C. on YPD medium (yeast extract 1%, polypepton 2%, glucose 2%). One of toxic chemical substances was added to the cell at logarithmic growth phase, and the cell was further cultured for two hours. Cell was cultured without any chemical substance in the same condition, and was used as control. Concentrations of the chemical substances were defined to inhibit the growth of the yeast but not lead to death.
After the completion of cultivation, the culture was centrifuged to collect the cells. To the cells, sodium acetate buffer (50 mM sodium acetate, 10 mM EDTA, 1% SDS) was added, and the mixture was shaken at 65° C. for five minutes, followed by returning to room temperature, and obtaining the supernatant, which procedure was repeated two times. To the supernatant, ½ amount of a solution of phenol/chloroform was added, and the mixture was centrifuged to give a supernatant, which was added with an equal amount of chloroform, and the mixture was centrifuged to give a supernatant. To the supernatant, an equal amount of isopropanol containing 0.3 M sodium acetate was added, and the mixture was allowed to stand at room temperature for 30 minutes, after which the mixture was centrifuged to give a sediment of the whole RNAs. Seventy % ethanol was added to the sediment, and the mixture was again centrifuged to give a sediment, which was then dried and dissolved in water. mRNA was isolated from the whole RNAs as followings. In view of the fact that a poly A chain is attached to the 3′ terminus of mRNA, a polynucleotide having a poly T structure which was immobilized on the surface of latex beads was used to trap the mRNA, and then the mRNA was washed and eluted with spine column (Oligotex-dT30<Super>mRNA Purification Kit, Takara). Reverse transcription of the mRNA was conducted with a reverse transcriptase (Super Script II Reverse Transcriptase; catalogue No. 18064-014, GibcoBRL) using fluorescence-labeled nucleotides to give cDNAs that were introduced with Cy3-dUTP or Cy5-dUTP during the reverse transcription.
The labeled cDNAs were dissolved in TE buffer (10 mM Tris-HCl/1 mM EDTA, pH8.0), and the solution was dropped on the DNA chip containing the whole genes of yeast (DNA Chip Research Inc. Japan) so that the cDNAs were hybridized on the DNA chip at 65° C. for over 12 hours. The fluoresces intensity of the DNA chip was read with a scanner, and the ratio relative to the fluorescence intensity resulting from the absence of chemical substance was estimated as the following, which is shown in Tables 1 to 9: [formula]
In the Tables, “Intensity” indicated in the rightmost column is a value of the level of expressed mRNA of each gene in control cells as divided by the average level of the expressions of the whole genes.

## CCCCCCCCCCCCOS(=O)(=O)[O-].[Na+] [(18), sodium lauryl sulfate]
Yeast gene YNL006W
  The level of expressed mRNA in the presence of chemical substance/The level of expressed mRNA in the absence of chemical substance: 1.3
Yeast gene YNL007C
  The level of expressed mRNA in the presence of chemical substance/The level of expressed mRNA in the absence of chemical substance: 1.0
Yeast gene YNL025C, ratio of DNA chip fluorescence intensity to that without chemical substance
  The level of expressed mRNA in the presence of chemical substance/ (in its absence), gene YNL025C: 1.3
Yeast gene YNL064C
  The level of expressed mRNA in the presence of chemical substance/ (ratio to absence of chemical substance): 0.7
Yeast gene YNL073W, mitochondria-located protein genes, 2 h culture with chemical
  The level of expressed mRNA in the presence of chemical substance/ (ratio to absence), gene YNL073W: 1.0
Yeast gene YNL093W
  The level of expressed mRNA in the presence of chemical substance/The level of expressed mRNA in the absence of chemical substance: 3.1
Yeast gene YNL192W, ratio of DNA chip fluorescence intensity to that without chemical substance
  The level of expressed mRNA in the presence of chemical substance/ (in its absence), gene YNL192W: 2.8
Yeast gene YNL333W
  The level of expressed mRNA in the presence of chemical substance/The level of expressed mRNA in the absence of chemical substance: 1.1
Yeast gene YNR010W
  The level of expressed mRNA in the presence of chemical substance/The level of expressed mRNA in the absence of chemical substance: 2.3
Yeast gene YNR069C
  The level of expressed mRNA in the presence of chemical substance/The level of expressed mRNA in the absence of chemical substance: 0.9
Yeast gene YNR072W, ratio of DNA chip fluorescence intensity to that without chemical substance
  The level of expressed mRNA in the presence of chemical substance/ (in its absence), gene YNR072W: 1.0
Yeast gene YNR076W
  The level of expressed mRNA in the presence of chemical substance/ (ratio to absence of chemical substance): 0.8
Yeast gene YOL013C
  The level of expressed mRNA in the presence of chemical substance/The level of expressed mRNA in the absence of chemical substance: 1.4
Yeast gene YOL096C, mitochondria-located protein genes, 2 h culture with chemical
  The level of expressed mRNA in the presence of chemical substance/ (ratio to absence), gene YOL096C: 1.2
Yeast gene YOL096C, ratio of DNA chip fluorescence intensity to that without chemical substance
  The level of expressed mRNA in the presence of chemical substance/ (in its absence), gene YOL096C: 1.2
Yeast gene YOL108C, ratio of DNA chip fluorescence intensity to that without chemical substance
  The level of expressed mRNA in the presence of chemical substance/ (in its absence), gene YOL108C: 2.7
Yeast gene YOL116W, ratio of DNA chip fluorescence intensity to that without chemical substance
  The level of expressed mRNA in the presence of chemical substance/ (in its absence), gene YOL116W: 1.4
Yeast gene YOL161C
  The level of expressed mRNA in the presence of chemical substance/ (ratio to absence of chemical substance): 1.0
Yeast gene YOL164W
  The level of expressed mRNA in the presence of chemical substance/The level of expressed mRNA in the absence of chemical substance: 1.3
Yeast gene YOR008C
  The level of expressed mRNA in the presence of chemical substance/ (ratio to absence of chemical substance): 1.3
Yeast gene YOR009W
  The level of expressed mRNA in the presence of chemical substance/ (ratio to absence of chemical substance): 0.8
Yeast gene YOR010C
  The level of expressed mRNA in the presence of chemical substance/ (ratio to absence of chemical substance): 0.6
Yeast gene YOR036W
  The level of expressed mRNA in the presence of chemical substance/The level of expressed mRNA in the absence of chemical substance: 1.7
Yeast gene YOR103C, ratio of DNA chip fluorescence intensity to that without chemical substance
  The level of expressed mRNA in the presence of chemical substance/ (in its absence), gene YOR103C: 1.5
Yeast gene YOR117W
  The level of expressed mRNA in the presence of chemical substance/The level of expressed mRNA in the absence of chemical substance: 0.9
Yeast gene YOR124C
  The level of expressed mRNA in the presence of chemical substance/The level of expressed mRNA in the absence of chemical substance: 1.0
Yeast gene YOR132W
  The level of expressed mRNA in the presence of chemical substance/The level of expressed mRNA in the absence of chemical substance: 1.6
Yeast gene YOR157C
  The level of expressed mRNA in the presence of chemical substance/The level of expressed mRNA in the absence of chemical substance: 1.2
Yeast gene YOR180C, ratio of DNA chip fluorescence intensity to that without chemical substance
  The level of expressed mRNA in the presence of chemical substance/ (in its absence), gene YOR180C: 2.3
Yeast gene YOR181W
  The level of expressed mRNA in the presence of chemical substance/The level of expressed mRNA in the absence of chemical substance: 0.6
Yeast gene YOR185C
  The level of expressed mRNA in the presence of chemical substance/The level of expressed mRNA in the absence of chemical substance: 1.1
Yeast gene YOR198C
  The level of expressed mRNA in the presence of chemical substance/The level of expressed mRNA in the absence of chemical substance: 1.5
Yeast gene YOR251C, ratio of DNA chip fluorescence intensity to that without chemical substance
  The level of expressed mRNA in the presence of chemical substance/ (in its absence), gene YOR251C: 1.3
Yeast gene YOR259C
  The level of expressed mRNA in the presence of chemical substance/The level of expressed mRNA in the absence of chemical substance: 1.5
Yeast gene YOR261C
  The level of expressed mRNA in the presence of chemical substance/The level of expressed mRNA in the absence of chemical substance: 1.9
Yeast gene YOR288C
  The level of expressed mRNA in the presence of chemical substance/The level of expressed mRNA in the absence of chemical substance: 1.6
Yeast gene YOR316C, mitochondria-located protein genes, 2 h culture with chemical
  The level of expressed mRNA in the presence of chemical substance/ (ratio to absence), gene YOR316C: 1.0
Yeast gene YOR348C, ratio of DNA chip fluorescence intensity to that without chemical substance
  The level of expressed mRNA in the presence of chemical substance/ (in its absence), gene YOR348C: 0.9
Yeast gene YOR355W
  The level of expressed mRNA in the presence of chemical substance/The level of expressed mRNA in the absence of chemical substance: 0.9
Yeast gene YOR363C, ratio of DNA chip fluorescence intensity to that without chemical substance
  The level of expressed mRNA in the presence of chemical substance/ (in its absence), gene YOR363C: 1.8
Yeast gene YOR383C
  The level of expressed mRNA in the presence of chemical substance/The level of expressed mRNA in the absence of chemical substance: 1.1
Yeast gene YPL040C, mitochondria-located protein genes, 2 h culture with chemical
  The level of expressed mRNA in the presence of chemical substance/ (ratio to absence), gene YPL040C: 1.1
Yeast gene YPL059W
  The level of expressed mRNA in the presence of chemical substance/ (ratio to absence of chemical substance): 1.3
Yeast gene YPL089C
  The level of expressed mRNA in the presence of chemical substance/The level of expressed mRNA in the absence of chemical substance: 1.1
Yeast gene YPL109C
  The level of expressed mRNA in the presence of chemical substance/The level of expressed mRNA in the absence of chemical substance: 1.2
Yeast gene YPL134C, mitochondria-located protein genes, 2 h culture with chemical
  The level of expressed mRNA in the presence of chemical substance/ (ratio to absence), gene YPL134C: 1.3
Yeast gene YPL140C
  The level of expressed mRNA in the presence of chemical substance/ (ratio to absence of chemical substance): 1.4
Yeast gene YPL148C, ratio of DNA chip fluorescence intensity to that without chemical substance
  The level of expressed mRNA in the presence of chemical substance/ (in its absence), gene YPL148C: 1.1
Yeast gene YPL149W
  The level of expressed mRNA in the presence of chemical substance/The level of expressed mRNA in the absence of chemical substance: 2.9
Yeast gene YPL154C
  The level of expressed mRNA in the presence of chemical substance/The level of expressed mRNA in the absence of chemical substance: 2.0
Yeast gene YPL194W
  The level of expressed mRNA in the presence of chemical substance/ (ratio to absence of chemical substance): 0.8
Yeast gene YPR005C
  The level of expressed mRNA in the presence of chemical substance/ (ratio to absence of chemical substance): 1.1
Yeast gene YPR103W
  The level of expressed mRNA in the presence of chemical substance/The level of expressed mRNA in the absence of chemical substance: 1.5
Yeast gene YPR108W
  The level of expressed mRNA in the presence of chemical substance/The level of expressed mRNA in the absence of chemical substance: 1.3
Yeast gene YPR165W, ratio of DNA chip fluorescence intensity to that without chemical substance
  The level of expressed mRNA in the presence of chemical substance/ (in its absence), gene YPR165W: 2.7
Energy system protein genes, 2 h culture with the chemical, ratio to control without chemical
  The level of expressed mRNA in the presence of chemical substance/ in its absence, gene YPR184W: 1.7
Ratio of DNA chip fluorescence intensity to that without chemical substance
  The level of expressed mRNA in the presence of chemical substance/ in its absence, gene YPR184W: 1.7
